Publication doi:10.1101/2024.08.19.608619, “Discovery of potent SARS-CoV-2 nsp3 macrodomain inhibitors uncovers lack of translation to cellular antiviral response” (bioRxiv, 2024)
In brackets after ≈: the same amount, converted by molar mass. Several values for one entry are separate records, joined by “and”; a condition that tells them apart may be missing. Equal values may be shown once. Read-outs that look alike come from different tables or passages of the source.

Legend:
[1] = test system: SARS-CoV-2, isolate USA-WA1/2020; assay: microbe, parasite or virus in culture; assay type: cell-based; conditions: HeLa-ACE2 SARS-CoV-2 antiviral effect without P-gp inhibitor; for perc_max_measured: maximum measured response of dose series; for perc_min_measured: minimum measured response of dose series; for EC50: read-out: ec50; for EC90: read-out: ec90
[2] = Hepatic microsomal stability, HLM; assay type: in vitro ADME, human; conditions: In vitro human liver microsomal stability; for perc_remaining_no_cofactor: no cofactor
[3] = Hepatic microsomal stability, MLM; assay type: in vitro ADME; conditions: In vitro mouse liver microsomal stability; for perc_remaining_no_cofactor: no cofactor
HeLa-ACE2 cells = conditions: for perc_max_measured: highest measured response of the dose series; for perc_min_measured: lowest measured response of the dose series
LogD = conditions: pH 7.4; In vitro LogD
in vitro = conditions: human, hela-ace2 cells, 50.0
[4] = In vitro kinetic solubility; conditions: In vitro kinetic solubility, ph 7.4
[5] = Permeability Papp (AB) MDR1/MDCKII; conditions: for papp_b_to_a_mean / efflux_ratio / perc_recovery_a_to_b_mean / perc_recovery_b_to_a_mean / papp_a_to_b_mean: In vitro MDR1-MDCKII permeability, no inhibitor; for perc_recovery_a_to_b_mean / perc_recovery_a_to_b_inhibitor_mean: recovery A to B; for perc_recovery_b_to_a_mean / perc_recovery_b_to_a_inhibitor_mean: recovery B to A; for papp_a_to_b_mean: A to B
[6] = MDR1-MDCKII, with inhibitor Cyclosporin A
[7] = MDR1-MDCKII, with inhibitor Verapamil
[8] = protocol HeLa-ACE2 cytotoxicity

Row | Compound | perc_max_measured [1] [%] | perc_min_measured [1] [%] | EC50 [1] [µM] | EC90 [1] [µM] | clint [2] [µL/min/mg] | perc_remaining [2] [%] | t_half [2] [min] | perc_remaining_no_cofactor [2] [%] | clint [3] [µL/min/mg] | perc_remaining [3] [%] | t_half [3] [min] | perc_remaining_no_cofactor [3] [%] | CC50 (HeLa-ACE2 cells; HeLa-ACE2 cytotoxicity) [µM] | cc10 (HeLa-ACE2 cells; HeLa-ACE2 cytotoxicity) [µM] | perc_max_measured (HeLa-ACE2 cells; HeLa-ACE2 cytotoxicity) [%] | perc_min_measured (HeLa-ACE2 cells; HeLa-ACE2 cytotoxicity) [%] | logd (LogD) | CC50 at 24 h (in vitro) [µM] | solubility_mean [4] [µM] | perc_recovery_a_to_b_mean [5] | also measured
1 | CCNC(=O)c1cc2c(N[C@@H](c3ccc4c(c3)S(=O)(=O)CCO4)C(C)C)ncnc2[nH]1 (racemic) [ASAP-0012317] | 111.753 | 79.377 | > 20 | > 20 | 64.0 | 33.0 | 26.2 | 95.0 | 26.0 | 66.0 | 65.5 | 99.0 | > 20 | > 20.0 | 105.961 | 74.573 | 2.9 | > 20 | 328 (≈ 145 µg/mL) | 71.9% and 74.3% and 65.2% | papp_b_to_a_mean ([5]; B to A): 1.5 ×10⁻⁶ cm/s and 1.4 ×10⁻⁶ cm/s; efflux_ratio [5]: 20.3 and 15.3; perc_recovery_b_to_a_mean [5]: 68.3% and 88.2%; papp_b_to_a_inhibitor_mean ([5]; MDR1-MDCKII, B to A, with inhibitor Verapamil): 1.5 ×10⁻⁶ cm/s; perc_recovery_a_to_b_inhibitor_mean [5, 6]: 82.7%; perc_recovery_a_to_b_inhibitor_mean [5, 7]: 92.9%; perc_recovery_b_to_a_inhibitor_mean [5, 6]: 89.0%; perc_recovery_b_to_a_inhibitor_mean [5, 7]: 90.3%
2 | CC(C)(C)[C@H](Nc1ncnc2[nH]c(-c3cnn(CC(N)=O)c3)cc12)c1ccc2c(c1)OCCO2 (single isomer, unassigned) [ASAP-0012330] | 108.484 | 91.129 | > 20 | > 20 | 153.0 | 9.0 | 10.9 | 100.0 | 44.0 | 48.0 | 38.3 | 105.0 | > 20 | > 20.0 | 98.779 | 88.572 | 3.0 | > 20 | 89 (≈ 41.1 µg/mL) | 67.4% | papp_a_to_b_mean [5]: 0.364 ×10⁻⁶ cm/s
3 | CNC(=O)c1cc2c(N[C@@H](c3ccc4c(c3)S(=O)(=O)CCC4)C(C)C)ncnc2[nH]1 (single isomer, unassigned) [ASAP-0012346] | 104.869 | 90.681 | > 20 | > 20 | 682.0 | 0.0 | 2.4 | 94.0 | 23.0 | 69.0 | 71.6 | 97.0 |  |  |  |  | 2.4 | > 20 | 397 (≈ 170 µg/mL) | 74.6% and 66.3% | CC50 (HeLa-ACE2 cells; [8]): > 20 µM; cc10 (HeLa-ACE2 cells; [8]): > 20.0 µM; perc_max_measured (HeLa-ACE2 cells; [8]): 108.34%; perc_min_measured (HeLa-ACE2 cells; [8]): 94.319%; papp_b_to_a_mean ([5]; B to A): 0.72 ×10⁻⁶ cm/s; efflux_ratio [5]: 21.1; perc_recovery_b_to_a_mean [5]: 68.8%; perc_recovery_a_to_b_inhibitor_mean [5, 7]: 98.1%; perc_recovery_b_to_a_inhibitor_mean [5, 7]: 86.6%
4 | CC(C)[C@@H](Nc1ncnc2[nH]c(-c3ccc4nnn(C)c4c3)cc12)c1ccc2c(c1)S(=O)(=O)CCC2 [ASAP-0011201] | 110.665 | 33.895 | 3.64 | > 20 | 752.0 | 0.0 | 2.2 | 93.0 | 219.0 | 3.0 | 7.6 | 93.0 | > 20 | > 20.0 | 106.149 | 70.638 | 3.4 | > 20 | 6 (≈ 3.01 µg/mL) | 53.6% | papp_a_to_b_mean [5]: 0.827 ×10⁻⁶ cm/s
5 | CC(C)[C@@H](Nc1ncnc2[nH]ccc12)c1ccc2c(c1)S(=O)(=O)CCO2 [ASAP-0012318] | 99.283 | 83.757 | > 20 | > 20 | 18.0 | 74.0 | 91.3 | 92.0 | 69.0 | 33.0 | 24.2 | 111.0 | > 20 | > 20.0 | 106.826 | 90.526 | 2.6 | > 20 | 372 (≈ 139 µg/mL) | 69.0% | papp_a_to_b_mean [5]: 4.4 ×10⁻⁶ cm/s
